{"source": "paper PMC8344761", "about": "(Journal of Enzyme Inhibition and Medicinal Chemistry, 2021)", "test_in_all_cases": "Raf kinase assay (Kinase HotSpot, Reaction Biology Corp.)", "assay_type_in_all_cases": "biochemical", "key": {"C-Raf": {"target": "C-Raf (Homo sapiens, UniProt P04049)", "sequence (P04049 whole entry)": "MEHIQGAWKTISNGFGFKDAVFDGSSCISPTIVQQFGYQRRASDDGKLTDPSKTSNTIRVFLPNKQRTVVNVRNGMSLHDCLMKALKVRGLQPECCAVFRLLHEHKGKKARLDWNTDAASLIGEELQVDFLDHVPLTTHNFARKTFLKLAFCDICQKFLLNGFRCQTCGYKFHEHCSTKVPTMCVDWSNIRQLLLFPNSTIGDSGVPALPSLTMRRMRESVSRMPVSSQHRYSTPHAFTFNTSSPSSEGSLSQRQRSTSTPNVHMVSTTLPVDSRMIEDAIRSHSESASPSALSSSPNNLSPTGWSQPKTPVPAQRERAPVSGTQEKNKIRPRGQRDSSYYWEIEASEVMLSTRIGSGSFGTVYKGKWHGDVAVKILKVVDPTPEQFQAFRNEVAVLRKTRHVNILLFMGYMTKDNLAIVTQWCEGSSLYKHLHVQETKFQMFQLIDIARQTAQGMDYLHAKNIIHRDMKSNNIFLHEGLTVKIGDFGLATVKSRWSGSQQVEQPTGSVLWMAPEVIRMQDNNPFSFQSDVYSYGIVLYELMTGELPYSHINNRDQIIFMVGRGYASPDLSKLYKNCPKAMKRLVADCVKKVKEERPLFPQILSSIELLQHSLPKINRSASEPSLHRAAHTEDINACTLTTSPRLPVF", "description": "(§1) Compounds were delivered into each Raf reaction, followed ∼20 min later by addition of a mixture of ATP and [γ-^33P-ATP] (specific activity approx. 500 cpm/pmol, concentration as required) to a final concentration of 10 µM. After incubation for 40 min at 25 °C, the reaction was stopped by the addition of a 3% phosphoric acid solution. Then, the reaction was spotted onto a P30 filtermat, and unbound phosphate was removed by washing three times for 5 min in 75 mM phosphoric acid and once in methanol prior to drying and scintillation counting. […] IC50 values and curve fits were obtained using Prism (GraphPad Software, La Jolla, CA)."}, "B-Raf": {"target": "B-Raf (Homo sapiens, UniProt P15056)", "sequence (P15056 whole entry)": "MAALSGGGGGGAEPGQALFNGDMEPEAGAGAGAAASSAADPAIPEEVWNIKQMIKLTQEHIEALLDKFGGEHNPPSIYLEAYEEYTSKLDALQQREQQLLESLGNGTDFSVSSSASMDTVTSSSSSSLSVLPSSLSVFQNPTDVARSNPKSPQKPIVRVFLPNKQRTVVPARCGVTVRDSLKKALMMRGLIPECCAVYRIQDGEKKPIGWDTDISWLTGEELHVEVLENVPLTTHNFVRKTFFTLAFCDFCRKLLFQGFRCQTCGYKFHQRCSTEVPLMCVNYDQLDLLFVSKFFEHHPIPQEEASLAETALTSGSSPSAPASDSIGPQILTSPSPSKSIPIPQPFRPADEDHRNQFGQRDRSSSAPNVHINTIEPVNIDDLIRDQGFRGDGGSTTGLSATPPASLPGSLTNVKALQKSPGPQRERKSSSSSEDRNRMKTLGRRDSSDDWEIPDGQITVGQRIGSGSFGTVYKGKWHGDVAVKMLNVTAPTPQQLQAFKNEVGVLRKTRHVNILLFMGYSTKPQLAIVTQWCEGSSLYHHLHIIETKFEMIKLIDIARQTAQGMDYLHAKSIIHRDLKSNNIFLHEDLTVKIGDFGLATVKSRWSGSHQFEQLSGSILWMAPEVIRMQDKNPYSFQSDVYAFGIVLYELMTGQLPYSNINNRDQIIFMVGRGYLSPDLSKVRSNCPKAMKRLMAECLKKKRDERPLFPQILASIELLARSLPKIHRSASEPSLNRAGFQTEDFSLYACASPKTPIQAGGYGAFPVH", "description": "as §1"}, "B-Raf (V600E)": {"target": "B-Raf (V600E) (Homo sapiens, UniProt P15056, V600E)", "sequence (P15056 whole entry V600E)": "as the sequence (P15056 whole entry) above, with V600E counted along it", "description": "as §1"}, "[1]": {"details": "fixed concentration 1 μM, mean of two independent experiments, 1 µM"}}}
{"smiles": "CNC(=O)c1cc(Oc2c(C)nc(NC(=O)Nc3ccc(Cl)c(C(F)(F)F)c3)c(C)c2C)ccn1", "note": "[Compound 4, 4-((6–(3-(4-Chloro-3-(trifluoromethyl)phenyl)ureido)-2,4,5-trimethylpyridin-3-yl)oxy)-N-methylpicolinamide]", "values": [{"measurement": "Inhibition (%) C-Raf", "setting": "C-Raf; [1]", "value": 84, "unit": "%"}, {"measurement": "inhibition at 1 µM", "setting": "C-Raf; fixed concentration 1 μM, mean of two independent experiments, read-out: Inhibition (%) C-Raf", "value": 84.3, "unit": "%"}, {"measurement": "IC50", "setting": "C-Raf; mean ± SD of two independent experiments, read-out: In vitro Raf kinase inhibition IC50 C-Raf", "value": "80 ± 8.1", "unit": "nM"}, {"measurement": "inhibition at 1 µM", "setting": "B-Raf; fixed concentration 1 μM, mean of two independent experiments", "value": 11.6, "unit": "%"}, {"measurement": "Inhibition (%) B-Raf", "setting": "B-Raf; [1]", "value": 12, "unit": "%"}, {"measurement": "IC50", "setting": "B-Raf; mean ± SD of two independent experiments, read-out: In vitro Raf kinase inhibition IC50 B-Raf", "value": 5860, "unit": "nM"}, {"measurement": "inhibition at 1 µM", "setting": "B-Raf (V600E); fixed concentration 1 μM, mean of two independent experiments, B-Raf (V599E)", "value": 56.1, "unit": "%"}, {"measurement": "IC50", "setting": "B-Raf (V600E); mean ± SD of two independent experiments, read-out: In vitro Raf kinase inhibition IC50 B-Raf(V600E)", "value": "650 ± 2.3", "unit": "nM"}]}
